# Tests used:
# [1] = target: T1, biotinylated Avi-POLΘ[2-894] (Homo sapiens, UniProt O75417); test: ATPase assay (ADP-Glo): POLΘ-mediated ATP hydrolysis; details: read-out: Biochemical ATPase ADPGlo IC50
# T1 construct: 1 nM biotinylated Avi-POLΘ[2-894]
# [2] = system: DLD1 WT cells; test: DLD1 viability assay (CellTiter-Glo, 7 days), DLD1 WT; type: cell-based; details: Homo sapiens, DLD-1, 168 h
# [3] = system: DLD1 BRCA2 (−/−) cells; test: DLD1 viability assay (CellTiter-Glo, 7 days), DLD1 BRCA2 (−/−); type: cell-based; details: Homo sapiens, DLD-1, 168 h, read-out: Viability IC50 (μM) DLD1 BRCA2 null
# T1 sequence (O75417 2-894 limits assumed): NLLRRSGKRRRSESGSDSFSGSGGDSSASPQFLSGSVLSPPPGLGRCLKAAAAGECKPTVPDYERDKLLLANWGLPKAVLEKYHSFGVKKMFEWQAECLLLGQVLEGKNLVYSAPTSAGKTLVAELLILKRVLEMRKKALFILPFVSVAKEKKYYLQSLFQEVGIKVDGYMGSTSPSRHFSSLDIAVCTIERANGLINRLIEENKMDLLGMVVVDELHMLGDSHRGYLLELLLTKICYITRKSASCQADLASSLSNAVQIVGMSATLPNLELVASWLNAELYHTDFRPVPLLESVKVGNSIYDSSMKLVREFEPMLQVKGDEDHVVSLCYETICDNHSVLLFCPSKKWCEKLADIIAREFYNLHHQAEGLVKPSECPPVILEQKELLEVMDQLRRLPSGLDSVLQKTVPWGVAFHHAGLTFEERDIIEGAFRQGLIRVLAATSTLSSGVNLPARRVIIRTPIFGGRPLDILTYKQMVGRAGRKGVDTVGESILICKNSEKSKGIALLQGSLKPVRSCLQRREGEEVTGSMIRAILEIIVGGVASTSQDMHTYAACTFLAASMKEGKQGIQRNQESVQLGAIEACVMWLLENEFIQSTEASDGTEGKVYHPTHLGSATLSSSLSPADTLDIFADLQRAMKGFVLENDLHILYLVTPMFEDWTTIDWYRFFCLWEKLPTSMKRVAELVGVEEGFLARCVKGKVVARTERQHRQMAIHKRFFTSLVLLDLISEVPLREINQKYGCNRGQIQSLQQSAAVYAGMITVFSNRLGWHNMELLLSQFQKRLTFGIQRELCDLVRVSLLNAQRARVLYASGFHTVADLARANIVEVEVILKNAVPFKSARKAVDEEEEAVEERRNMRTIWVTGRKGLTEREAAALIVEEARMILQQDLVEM
IC50 [1] [nM],IC50 [2] [µM],IC50 [3] [µM],SMILES
1 to 15,> 10,0.001 to 0.1,"COc1cnc(Cl)cc1-c1cc(C)ncc1C(=O)Nc1nc2ncc([C@H]3CC4CC3C[C@H]4C#N)nc2s1 (single isomer, unassigned) [Example 361D, 2′-chloro-N-(6-((2S or R,5R or S)-5-cyanobicyclo[2.2.1]heptan-2-yl)thiazolo[4,5-b]pyrazin-2-yl)-5′-methoxy-6-methyl-[4,4′-bipyridine]-3-carboxamide]"
1 to 15,> 10,0.001 to 0.1,"COc1cnc(Cl)cc1-c1cc(C)ncc1C(=O)Nc1nc2ncc(N3CCC(C)(O)CC3)nc2s1 [Example 509, 2′-chloro-N-(6-(4-hydroxy-4-methylpiperidin-1-yl)thiazolo[4,5-b]pyrazin-2-yl)-5′-methoxy-6-methyl-[4,4′-bipyridine]-3-carboxamide]"
1 to 15,> 10,0.1 to 0.25,"COc1cnc(Cl)cc1-c1cc(C)ncc1C(=O)Nc1nc2ncc(C3CCOC3)nc2s1 (racemic) [Example 510, (Racemic)-2′-chloro-5′-methoxy-6-methyl-N-(6-(tetrahydrofuran-3-yl)thiazolo[4,5-b]pyrazin-2-yl)-[4,4′-bipyridine]-3-carboxamide]"
1 to 15,> 10,0.001 to 0.1,"COc1cnc(Cl)cc1-c1cc(C)ncc1C(=O)Nc1nc2ncc(N3CCO[C@H]4CCC[C@H]43)nc2s1 [Example 397, 2′-chloro-N-(6-((4aR,7aS)-hexahydrocyclopenta[b][1,4]oxazin-4(4aH)-yl)thiazolo[4,5-b]pyrazin-2-yl)-5′-methoxy-6-methyl-[4,4′-bipyridine]-3-carboxamide]"
1 to 15,> 10,> 2,COc1cnc(Cl)cc1-c1cc(C)ncc1C(=O)Nc1nn2cc(C(=O)N[C@H]3C[C@@H](O)C3)nc2s1 [Example 308]
1 to 15,> 10,0.1 to 0.25,"COc1nc2c(cc1-c1cc(C)ncc1C(=O)Nc1nc3ncc(-c4ccncc4)nc3s1)OCCN2C [Example 507, 4-(6-methoxy-4-methyl-3,4-dihydro-2H-pyrido[3,2-b][1,4]oxazin-7-yl)-6-methyl-N-(6-(pyridin-4-yl)thiazolo[4,5-b]pyrazin-2-yl)nicotinamide]"
1 to 15,> 10,0.001 to 0.1,"COc1cnc(Cl)cc1-c1cc(C)ncc1C(=O)Nc1nc2ncc([C@@H]3CC4CC3C[C@@H]4C#N)nc2s1 (single isomer, unassigned) [Example 361C, 2′-chloro-N-(6-((2R or S,5S or R)-5-cyanobicyclo[2.2.1]heptan-2-yl)thiazolo[4,5-b]pyrazin-2-yl)-5′-methoxy-6-methyl-[4,4′-bipyridine]-3-carboxamide]"
1 to 15,> 10,0.001 to 0.1,"COc1cnc(Cl)cc1-c1cc(C)ncc1C(=O)Nc1nc2ncc(N3CCC(OC(F)F)CC3)nc2s1 [Example 502, 2′-chloro-N-(6-(4-(difluoromethoxy)piperidin-1-yl)thiazolo[4,5-b]pyrazin-2-yl)-5′-methoxy-6-methyl-[4,4′-bipyridine]-3-carboxamide]"
1 to 15,2.5 to 5,0.001 to 0.1,"COc1cnc(Cl)cc1-c1cc(C)ncc1C(=O)Nc1nc2ncc(N3CCC(O)(C(F)(F)F)CC3)nc2s1 [Example 511, 2′-chloro-N-(6-(4-hydroxy-4-(trifluoromethyl)piperidin-1-yl)thiazolo[4,5-b]pyrazin-2-yl)-5′-methoxy-6-methyl-[4,4′-bipyridine]-3-carboxamide]"
1 to 15,> 10,0.001 to 0.1,"COc1cnc(Cl)cc1-c1cc(C)ncc1C(=O)Nc1nc2ncc(C3CCOCC3)nc2s1 [Example 512, 2′-chloro-5′-methoxy-6-methyl-N-(6-(tetrahydro-2H-pyran-4-yl)thiazolo[4,5-b]pyrazin-2-yl)-[4,4′-bipyridine]-3-carboxamide]"
1 to 15,> 10,0.1 to 0.25,"COc1cnc(Cl)cc1-c1cc(C)ncc1C(=O)Nc1nc2ncc(C3CCOC3)cc2s1 (single isomer, unassigned) [Example 515, (R or S)-2′-chloro-5′-methoxy-6-methyl-N-(6-(tetrahydrofuran-3-yl)thiazolo[4,5-b]pyridin-2-yl)-[4,4′-bipyridine]-3-carboxamide]"
1 to 15,,,"COc1cnc(Cl)cc1-c1cc(C)ncc1C(=O)Nc1nc2ncc(N3CCC(N(C)C)CC3)nc2s1 [Example 469, 2′-chloro-N-(6-(4-(dimethylamino)piperidin-1-yl)thiazolo[4,5-b]pyrazin-2-yl)-5′-methoxy-6-methyl-[4,4′-bipyridine]-3-carboxamide]"
15 to 50,,,"COc1cnc(Cl)cc1-c1cc(C)ncc1C(=O)Nc1nc2ncc(N3CCO[C@@H]4CCC[C@@H]43)nc2s1 [Example 395, 2′-chloro-N-(6-((4aS,7aR)-hexahydrocyclopenta[b][1,4]oxazin-4(4aH)-yl)thiazolo[4,5-b]pyrazin-2-yl)-5′-methoxy-6-methyl-[4,4′-bipyridine]-3-carboxamide]"
1 to 15,,,COc1cnc(Cl)cc1-c1cc(C)ncc1C(=O)Nc1nn2cc(C(=O)N[C@H]3CC[C@@H](O)CC3)nc2s1 [Example 292]
1 to 15,,,"COc1cnc(Cl)cc1-c1cc(C)ncc1C(=O)Nc1nc2ncc(C3(OC)CCOCC3)nc2s1 [Example 373, 2′-chloro-5′-methoxy-N-(6-(4-methoxytetrahydro-2H-pyran-4-yl)thiazolo[4,5-b]pyrazin-2-yl)-6-methyl-[4,4′-bipyridine]-3-carboxamide]"
150 to 900,,,"COc1ccccc1-c1cc(C)ncc1C(=O)Nc1nn2cc(C3CC3)nc2s1 [Example 168, N-(6-cyclopropylimi-dazo[2,1-b][1,3,4]thiadiazol-2-yl)-4-(2-methoxyphenyl)-6-methylnicotinamide]"
50 to 150,,,"COc1cnc(Cl)cc1-c1cc(Oc2cc(N)cc(Cl)c2)ncc1C(=O)Nc1nn2cc(C3CC3)nc2s1 [Example 493, 6-(3-amino-5-chlorophenoxy)-2′-chloro-N-(6-cyclopropylimidazo[2,1-b][1,3,4]thiadiazol-2-yl)-5′-methoxy-[4,4′-bipyridine]-3-carboxamide]"
1 to 15,,,"COc1ccc(C#N)cc1-c1cc(C)ncc1C(=O)Nc1nc2ncc(N3CCC(O)(C(F)F)CC3)nc2s1 (single isomer, unassigned) [Example 418, 4-(5-cyano-2-methoxyphenyl)-N-(6-(4-(difluoromethyl)-4-hydroxypiperidin-1-yl)thiazolo[4,5-b]pyrazin-2-yl)-6-methylnicotinamide]"

SMILES,IC50 [1] [nM],IC50 [2] [µM],IC50 [3] [µM]
"COc1cnc(Cl)cc1-c1cc(C)ncc1C(=O)Nc1nn2cc(C(=O)N[C@H]3C[C@](O)(C(F)(F)F)C3)nc2s1 [Example 32, 2-(2′-chloro-5′-methoxy-6-methyl-[4,4′-bipyridine]-3-carboxamido)-N-((1s,3s)-3-hydroxy-3-(trifluoromethyl)cyclobutyl)imidazo[2,1-b][1,3,4]thiadiazole-6-carboxamide]",> 900,,
"COc1ccccc1-c1cc(C)ncc1C(=O)Nc1nc2ccc(Br)cc2o1 [Example 54, N-(6-Bromobenzo[d]oxazol-2-y1)-4-(2-methoxyphenyl)-6-methylnicotinamide]",15 to 50,,

# Reference: patent publication US20260015360A1 (MOMA Therapeutics, Inc., priority 2023, published 2026)
